# According to publication PMC6910976 (ACS infectious diseases, 2019):
# Experiments:
# Test in all cases: UPLC-high resolution MS of intact protein
# Assay type in all cases: binding
# Settings in all cases: covalent; 2 uM enzyme, 50 uM drug, 25 mM Tris pH 8.0, 5 h, 20 °C
# LdtA = biological target: T1, LdtA (Mycolicibacterium smegmatis, UniProt A0QY44)
# T1 sequence (A0QY44 41-259): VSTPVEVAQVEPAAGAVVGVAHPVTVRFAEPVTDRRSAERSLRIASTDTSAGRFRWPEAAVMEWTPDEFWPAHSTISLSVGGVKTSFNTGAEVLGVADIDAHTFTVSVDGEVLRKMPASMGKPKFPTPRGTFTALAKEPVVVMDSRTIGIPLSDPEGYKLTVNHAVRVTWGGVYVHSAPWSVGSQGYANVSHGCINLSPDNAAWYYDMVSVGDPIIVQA
# LdtF = biological target: T2, LdtF (Mycolicibacterium smegmatis, UniProt A0QS24)
# T2 sequence (A0QS24 31-420): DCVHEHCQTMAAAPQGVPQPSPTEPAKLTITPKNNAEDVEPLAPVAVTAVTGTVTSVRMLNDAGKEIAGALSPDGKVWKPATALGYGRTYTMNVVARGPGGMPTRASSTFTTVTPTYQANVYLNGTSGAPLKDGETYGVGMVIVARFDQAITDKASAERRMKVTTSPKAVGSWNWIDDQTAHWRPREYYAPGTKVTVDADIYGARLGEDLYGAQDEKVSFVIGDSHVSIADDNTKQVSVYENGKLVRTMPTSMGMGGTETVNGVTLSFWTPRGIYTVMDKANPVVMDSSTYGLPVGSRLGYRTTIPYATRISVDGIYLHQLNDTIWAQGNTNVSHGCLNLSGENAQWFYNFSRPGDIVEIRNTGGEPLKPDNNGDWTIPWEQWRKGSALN
# LdtB = biological target: T3, LdtB (Mycolicibacterium smegmatis, UniProt A0R1G6)
# T3 sequence (A0R1G6 27-400): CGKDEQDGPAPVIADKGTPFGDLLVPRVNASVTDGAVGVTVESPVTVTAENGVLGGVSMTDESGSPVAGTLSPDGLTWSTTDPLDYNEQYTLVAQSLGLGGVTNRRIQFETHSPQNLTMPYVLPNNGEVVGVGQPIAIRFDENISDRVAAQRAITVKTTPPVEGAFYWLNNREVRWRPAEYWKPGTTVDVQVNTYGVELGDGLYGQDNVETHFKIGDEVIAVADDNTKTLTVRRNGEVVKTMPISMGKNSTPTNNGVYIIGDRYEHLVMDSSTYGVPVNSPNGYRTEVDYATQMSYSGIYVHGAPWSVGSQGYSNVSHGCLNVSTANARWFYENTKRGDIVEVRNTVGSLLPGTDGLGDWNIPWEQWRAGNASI
smiles,measurement,setting,value
C[C@@H](O)[C@H]1C(=O)N2C(C(=O)[O-])=C(SC3Cn4cnc[n+]4C3)[C@H](C)[C@H]12 (stereo partly shown) [biapenem],UPLC-high resolution MS of intact protein,LdtA,"fully acylated by the (carba)penems faropenem, biapenem, doripenem, and meropenem"
same,UPLC-high resolution MS of intact protein,LdtF,"small amounts of apo-LdtF remained following incubation with biapenem, doripenem, and faropenem"
same,UPLC-high resolution MS of intact protein,LdtB,"fully acylated by the (carba)penems faropenem, biapenem, doripenem, and meropenem"
C[C@@H](O)[C@H]1C(=O)N2C(C(=O)O)=C([C@H]3CCCO3)S[C@H]12 [faropenem],UPLC-high resolution MS of intact protein,LdtA,"fully acylated by the (carba)penems faropenem, biapenem, doripenem, and meropenem"
same,UPLC-high resolution MS of intact protein,LdtF,"small amounts of apo-LdtF remained following incubation with biapenem, doripenem, and faropenem"
same,UPLC-high resolution MS of intact protein,LdtB,"fully acylated by the (carba)penems faropenem, biapenem, doripenem, and meropenem"
C[C@@H](O)[C@H]1C(=O)N2C(C(=O)O)=C(S[C@@H]3CN[C@H](C(=O)N(C)C)C3)[C@H](C)[C@H]12 [meropenem],UPLC-high resolution MS of intact protein,LdtA,"fully acylated by the (carba)penems faropenem, biapenem, doripenem, and meropenem"
same,UPLC-high resolution MS of intact protein,LdtF,only meropenem completely acylates LdtF under the same conditions
same,UPLC-high resolution MS of intact protein,LdtB,"fully acylated by the (carba)penems faropenem, biapenem, doripenem, and meropenem"
C[C@@H](O)[C@H]1C(=O)N2C(C(=O)O)=C(S[C@@H]3CN[C@H](CNS(N)(=O)=O)C3)[C@H](C)[C@H]12 [doripenem],UPLC-high resolution MS of intact protein,LdtF,"small amounts of apo-LdtF remained following incubation with biapenem, doripenem, and faropenem"
